This series in a line: physchem.

≈ marks a conversion by molar mass, not a printed value.

What is called solubility is how much of the substance goes into solution per volume. A lower solubility goes with a poorly soluble substance. With `CC[C@H](C)[C@H](NC(=O)[C@H](Cc1ccc(O)cc1)NC(=O)[C@H](CO)NC(=O)[C@H](CC(=O)O)NC(=O)[C@H](CC(N)=O)NC(=O)[C@H](CC(C)C)NC(=O)[C@H](CCC(N)=O)NC(=O)[C@H](CCCCN)NC(=O)[C@@H](NC(=O)[C@@H](NC(=O)[C@H](CCC(=O)O)NC(=O)[C@H](CCC(N)=O)NC(=O)[C@H](CC(C)C)NC(=O)[C@H](CCSC)NC(=O)[C@H](C)NC(=O)[C@H](CCSC)NC(=O)[C@H](CCC(=O)O)NC(=O)[C@H](CC(=O)O)NC(=O)[C@H](CO)NC(=O)[C@H](CC(C)C)NC(=O)[C@H](CC(=O)O)NC(=O)[C@H](CC(C)C)NC(=O)[C@H](CC(C)C)NC(=O)[C@@H](NC(=O)[C@@H](NC(=O)[C@H](CC(N)=O)NC(=O)[C@@H](NC(=O)[C@H](CCCCN)NC(=O)[C@H](CO)NC(=O)[C@@H](NC(=O)[C@H](CCC(=O)O)NC(=O)[C@H](C)NC(=O)[C@H](Cc1ccccc1)NC(=O)[C@H](CC(N)=O)NC(=O)[C@@H]1CCCN1C(=O)CN)[C@@H](C)CC)[C@@H](C)CC)[C@@H](C)O)[C@@H](C)O)C(C)C)C(C)C)C(=O)O` [HKU4-HR2P1], the solubility runs as follows: (pH 7.2, aqueous buffer) 1570 µM (≈ 6340 µg/mL); (water) 651 µM (≈ 2630 µg/mL).
For `CC[C@H](C)[C@H](NC(=O)[C@H](Cc1ccc(O)cc1)NC(=O)[C@H](CO)NC(=O)[C@H](CC(=O)O)NC(=O)[C@H](CC(N)=O)NC(=O)[C@H](CC(C)C)NC(=O)[C@H](CCC(N)=O)NC(=O)[C@H](CCCCN)NC(=O)[C@@H](NC(=O)[C@@H](NC(=O)[C@H](CCC(=O)O)NC(=O)[C@H](CCC(N)=O)NC(=O)[C@H](CC(C)C)NC(=O)[C@H](CCSC)NC(=O)[C@H](C)NC(=O)[C@H](CCSC)NC(=O)[C@H](CCC(=O)O)NC(=O)[C@H](CC(=O)O)NC(=O)[C@H](CO)NC(=O)[C@H](CC(C)C)NC(=O)[C@H](CC(=O)O)NC(=O)[C@H](CC(C)C)NC(=O)[C@H](CC(C)C)NC(=O)[C@@H](NC(=O)[C@@H](NC(=O)[C@H](CC(N)=O)NC(=O)[C@@H](NC(=O)[C@H](CCCCN)NC(=O)[C@H](CO)NC(=O)[C@@H](NC(=O)[C@@H](N)CCC(=O)O)[C@@H](C)CC)[C@@H](C)CC)[C@@H](C)O)[C@@H](C)O)C(C)C)C(C)C)C(=O)N[C@@H](CC(=O)O)C(=O)N[C@@H](CC(C)C)C(=O)N[C@@H](CCCCN)C(=O)N[C@@H](CCC(=O)O)C(=O)N[C@@H](CC(C)C)C(=O)O` [HKU4-HR2P2], the concentration in solution (pH 7.2, aqueous buffer) (solubility) came to 2920 µM (≈ 12100 µg/mL) and the solubility (water) worked out at 150 µM (≈ 623 µg/mL).
For `CC[C@H](C)[C@H](NC(=O)[C@H](Cc1ccc(O)cc1)NC(=O)[C@H](CO)NC(=O)[C@H](CC(=O)O)NC(=O)[C@H](CC(N)=O)NC(=O)[C@H](CC(C)C)NC(=O)[C@H](CCC(N)=O)NC(=O)[C@H](CCCCN)NC(=O)[C@@H](NC(=O)[C@@H](NC(=O)[C@H](CCC(=O)O)NC(=O)[C@H](CCC(N)=O)NC(=O)[C@H](CC(C)C)NC(=O)[C@H](CCSC)NC(=O)[C@H](C)NC(=O)[C@H](CCSC)NC(=O)[C@H](CCC(=O)O)NC(=O)[C@H](CC(=O)O)NC(=O)[C@H](CO)NC(=O)[C@H](CC(C)C)NC(=O)[C@H](CC(=O)O)NC(=O)[C@@H](N)CC(C)C)C(C)C)C(C)C)C(=O)N[C@@H](CC(=O)O)C(=O)N[C@@H](CC(C)C)C(=O)N[C@@H](CCCCN)C(=O)N[C@@H](CCC(=O)O)C(=O)N[C@@H](CC(C)C)C(=O)NCC(=O)N[C@@H](CC(N)=O)C(=O)N[C@@H](Cc1ccc(O)cc1)C(=O)N[C@H](C(=O)N[C@@H](Cc1ccc(O)cc1)C(=O)N[C@@H](Cc1ccc(O)cc1)C(=O)N[C@@H](CC(N)=O)C(=O)N[C@@H](CCCCN)C(=O)N[C@@H](Cc1c[nH]c2ccccc12)C(=O)O)[C@@H](C)O` [HKU4-HR2P3], the concentration in solution (pH 7.2, aqueous buffer) (solubility) was 118 µM (≈ 513 µg/mL) and the solubility (water) was found to be 1670 µM (≈ 7270 µg/mL).
On the same counts, the results for `CC[C@H](C)[C@H](NC(=O)[C@H](Cc1ccc(O)cc1)NC(=O)[C@H](CO)NC(=O)[C@H](CCC(=O)O)NC(=O)[C@H](CC(N)=O)NC(=O)[C@H](CC(C)C)NC(=O)[C@H](C)NC(=O)[C@H](CCCCN)NC(=O)[C@@H](NC(=O)[C@@H](NC(=O)[C@H](CCC(N)=O)NC(=O)[C@H](CCC(N)=O)NC(=O)[C@H](CC(C)C)NC(=O)[C@H](CO)NC(=O)[C@H](CC(C)C)NC(=O)[C@H](CCSC)NC(=O)[C@H](CCC(=O)O)NC(=O)[C@H](Cc1ccc(O)cc1)NC(=O)[C@@H](NC(=O)[C@H](CC(C)C)NC(=O)[C@H](CC(=O)O)NC(=O)[C@H](CC(C)C)NC(=O)[C@H](CC(C)C)NC(=O)[C@@H](NC(=O)[C@@H](NC(=O)[C@H](CC(N)=O)NC(=O)[C@@H](NC(=O)[C@H](CCC(N)=O)NC(=O)[C@@H](NC(=O)[C@H](CC(C)C)NC(=O)[C@@H](N)CO)[C@@H](C)O)[C@@H](C)CC)[C@@H](C)O)[C@@H](C)O)[C@@H](C)O)C(C)C)C(C)C)C(=O)N[C@@H](CC(=O)O)C(=O)N[C@@H](CC(C)C)C(=O)N[C@@H](CCCCN)C(=O)N[C@@H](CCC(=O)O)C(=O)N[C@@H](CC(C)C)C(=O)O` [MERS-HR2P, reference compound] are 105 µM (≈ 435 µg/mL) and 29 µM (≈ 120 µg/mL).

(Values after publication PMC6357153 (Viruses, 2019).)
